Here are results for 23 compounds from ChEMBL document CHEMBL4049391, “Vicinal diaryl azole-based urea derivatives as potential cholesterol lowering agents acting through inhibition of SOAT enzymes” (Eur J Med Chem, 2017).

Assay [1] deals with Rattus norvegicus. Nature of the assay: Anti-hypercholesterolemic activity in poloxamer-407-induced Wistar rat lipoprotein lipase inhibition model assessed as fold change in triglyceride level at 20 mg/kg administered as single dose via oral gavage pretreated for 4 hrs followed by poloxamer-407 induction measured over 24 hrs (reference value: 80). In kind it is functional.
The nature of assay [2]: Inhibition of rat microsomal SOAT assessed as reduction in cholesteryl oleate formation from oleoyl co-enzyme A pretreated for 15 mins followed by oleoyl co-enzyme A addition after 10 mins by HPTLC method.
Assay [3] is filed under the species Rattus norvegicus. The assay is described as follows: Inhibition of rat microsomal SOAT assessed as reduction in cholesteryl oleate formation from oleoyl co-enzyme A at 10 uM pretreated for 15 mins followed by oleoyl co-enzyme A addition measured after 10 mins by HPTLC method relative to control.
In assay [4] the target is T1, Sterol O-acyltransferase 2 (Homo sapiens, UniProt O75908).
T1 sequence (O75908 whole entry): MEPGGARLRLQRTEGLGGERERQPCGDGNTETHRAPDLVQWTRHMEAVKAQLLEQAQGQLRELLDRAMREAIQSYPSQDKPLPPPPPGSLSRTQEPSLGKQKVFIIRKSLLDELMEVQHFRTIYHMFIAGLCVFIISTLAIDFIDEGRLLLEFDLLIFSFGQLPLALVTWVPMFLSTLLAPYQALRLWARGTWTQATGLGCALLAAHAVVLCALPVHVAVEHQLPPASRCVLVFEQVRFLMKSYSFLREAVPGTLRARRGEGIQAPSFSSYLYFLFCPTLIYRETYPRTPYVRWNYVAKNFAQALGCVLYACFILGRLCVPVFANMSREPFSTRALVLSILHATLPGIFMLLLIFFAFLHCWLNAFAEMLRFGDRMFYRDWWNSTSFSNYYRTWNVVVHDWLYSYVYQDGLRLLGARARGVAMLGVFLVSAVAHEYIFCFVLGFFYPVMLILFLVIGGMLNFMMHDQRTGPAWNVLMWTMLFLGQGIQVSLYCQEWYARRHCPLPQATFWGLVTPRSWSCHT
Nature of the assay: Inhibition of human SOAT2.

`CC(C)c1cc(C(C)C)c(CC(=O)NS(=O)(=O)Oc2c(C(C)C)cccc2C(C)C)c(C(C)C)c1` [AVASIMIBE]: in assay [1], the “fold change (FC)” value was found to be 20.

Take `CCCCCCCNC(=O)Nc1ccc(-c2sc(C)nc2-c2ccc(Cl)cc2)cc1`: the “fold change (FC)” value in assay [1] was 50 - 90. In assay [2], the concentration for half-maximal inhibition (IC50) came to 7.85 µM and the pIC50 turned out to be 5.105. Besides, the inhibition in assay [3] turned out to be 52.2%.

For `CCc1cccc(CC)c1NC(=O)Nc1ccc(-c2sc(C)nc2-c2ccc(Cl)cc2)cc1`, in assay [1], the “fold change (FC)” value is on record as 50 - 90. In assay [2], the IC50 came to 4.04 µM and the pIC50 came out at 5.3936. Also, in assay [3], the inhibition turned out to be 63.3%.

Turning to `CCc1cccc(CC)c1NC(=O)Nc1ccc(-c2sc(C)nc2-c2ccc(OC)cc2)cc1`, in assay [2], the IC50 was 43.6 µM and the negative-log IC50 (pIC50) was determined as 4.3606. Further, the inhibition in assay [3] worked out at 31.6%.

For `O=C(NCCCCCCSc1nc(-c2ccccc2)c(-c2ccccc2)[nH]1)Nc1ccc(F)cc1F`, in assay [4], the IC50 turned out to be 1740 nM.

For `CCCCNC(=O)Nc1nc(-c2ccc(C)cc2)c(-c2ccc(Cl)cc2)s1`, in assay [2], the IC50 was 94 µM and the pIC50 is 4.0271. In assay [3], the inhibition is 36.4%.

Take `CCCCCCCNC(=O)Nc1nc(-c2ccc(OC)cc2)c(-c2ccc(Cl)cc2)s1`: in assay [2], the IC50 came out at 21.3 µM and the pIC50 is 4.672. In addition, the inhibition in assay [3] amounted to 1.73%.

Turning to `COc1cc(NC(=O)Nc2ccc(-c3sc(C)nc3-c3ccc(F)cc3)cc2)cc(OC)c1OC`, in assay [2], the IC50 is 12.6 µM and the pIC50 is listed as 4.898. Moreover, in assay [3], the inhibition turned out to be 42%.

Turning to `O=C(Nc1ccccc1)Nc1nc(-c2ccccc2)c(-c2ccccc2)s1`, in assay [2], the IC50 amounted to 17.7 µM and the negative logarithm of the IC50 (pIC50) is 4.7512. In addition, the inhibition in assay [3] turned out to be 10.6%.

As for `CCc1cccc(CC)c1NC(=O)Nc1ccc(-c2sc(C)nc2-c2ccc(F)cc2)cc1`, in assay [1], the “fold change (FC)” value was 50 - 90. Further, in assay [2], the IC50 is 8.4 µM and the pIC50 worked out at 5.075. Besides, in assay [3], the inhibition is 46.7%.

For `CCCCNC(=O)Nc1nc(-c2ccc(OC)cc2)c(-c2ccc(Cl)cc2)s1`, in assay [2], the IC50 came to 62.9 µM and the negative-log IC50 (pIC50) is recorded as 4.2014. The inhibition in assay [3] turned out to be 27.6%.

As for `CCCCCCCNC(=O)Nc1ccc(-c2sc(C)nc2-c2ccc(F)cc2)cc1`, in assay [1], the “fold change (FC)” value was 50 - 90. In assay [2], the IC50 was 5.69 µM and the pIC50 is recorded as 5.244. The inhibition in assay [3] was 63%.

With `Cc1nc(-c2ccc(Cl)cc2)c(-c2ccc(NC(=O)NCCN3CCOCC3)cc2)s1`, in assay [2], the concentration for half-maximal inhibition (IC50) was 118 µM and the pIC50 is recorded as 3.927. The inhibition in assay [3] amounted to 12.3%.

For the compound `CCc1cccc(CC)c1NC(=O)Nc1ccc(-c2sc(C)nc2-c2ccc(C)cc2)cc1`, in assay [2], the IC50 stood at 30.9 µM and the pIC50 came out at 4.412. The inhibition in assay [3] was 30.9%.

Regarding `CCCCNC(=O)Nc1ccc(-c2sc(C)nc2-c2ccc(Cl)cc2)cc1`, the “fold change (FC)” value in assay [1] is 50 - 90. Moreover, in assay [2], the IC50 is 6.27 µM and the pIC50 is listed as 5.202. Moreover, the inhibition in assay [3] came to 60.7%.

With `CCCCNC(=O)Nc1nc(-c2ccc(OC)cc2)c(-c2ccc(NC(C)=O)cc2)s1`, in assay [2], the IC50 amounted to 41.3 µM and the pIC50 is 4.384. For the same compound, the inhibition in assay [3] came out at 39.5%.

Turning to `Cc1ccc(-c2nonc2-c2ccc(NC(=O)Nc3ccc(F)cc3F)cc2)cc1`, in assay [2], the IC50 came to 20.1 µM and the pIC50 was 4.697. Further, the inhibition in assay [3] is 13.5%.

`CCCCNC(=O)Nc1ccc(-c2sc(C)nc2-c2ccc(F)cc2)cc1`: in assay [2], the half-maximal inhibitory concentration (IC50) stood at 9.58 µM and the pIC50 is 5.0186. Besides, the inhibition in assay [3] worked out at 59.9%.

With `Cc1nc(-c2ccc(F)cc2)c(-c2ccc(NC(=O)Nc3ccc(F)cc3F)cc2)s1`, in assay [2], the IC50 came out at 196 µM and the pIC50 is on record as 3.7081. For the same compound, in assay [3], the inhibition came out at 4.97%.

Regarding `COc1ccc(-c2nc(NC(=O)Nc3ccc(F)cc3F)sc2-c2ccc(NS(C)(=O)=O)cc2)cc1`, in assay [2], the IC50 was determined as 19 µM and the negative logarithm of the IC50 (pIC50) is on record as 4.721. In addition, in assay [3], the inhibition is 19.6%.

For `CCCCCCCCCCCCNC(=O)Nc1ccc(-c2nonc2-c2ccc(C)cc2)cc1`, in assay [2], the 50% inhibitory concentration (IC50) is 123 µM and the pIC50 worked out at 3.909. For the same compound, the inhibition in assay [3] turned out to be 9.15%.

Consider `COc1ccc(-c2nc(NC(=O)Nc3ccc(F)cc3F)sc2-c2ccc(NC(C)=O)cc2)cc1`, for which, in assay [2], the IC50 was determined as 31.9 µM and the negative logarithm of the IC50 (pIC50) was found to be 4.496. Besides, the inhibition in assay [3] was 39%.

For `CCCCCCCCCCCCNC(=O)Nc1ccc(-c2sc(C)nc2-c2ccc(F)cc2)cc1`, in assay [2], the IC50 was determined as 48.6 µM and the pIC50 worked out at 4.313. Moreover, the inhibition in assay [3] came out at 34.5%.

Broadly, the IC50 is the concentration that inhibits the measured activity by half. The term pIC50 denotes the negative decadic logarithm of the IC50, by convention in mol/L. Usually inhibition stands for the relative decrease from the control value, in per cent.
